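Growth conditions: 96-well plates. Treatment: test compound, 48 hours, 5 concentrations. Analysis: linear interpolation between bracketing concentrations; unreached endpoints set to highest concentration. TGI: total growth inhibition.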
Legend:
Assay in all cases: inhibition of tumour cell growth, NCI panel, 48 h
MALME-3M melanoma = system: MALME-3M melanoma
EKVX NSCLC = system: EKVX NSCLC
HCT-15 colon = system: HCT-15 colon
A549 NSCLC = system: A549 NSCLC
MDA-MB-231 breast = system: MDA-MB-231 breast
SK-MEL-28 melanoma = system: SK-MEL-28 melanoma
CAKI-1 renal = system: CAKI-1 renal
MDA-MB-435 = system: MDA-MB-435
UACC-62 melanoma = system: UACC-62 melanoma
NCI-H23 lung = system: NCI-H23 lung
SK-MEL-2 melanoma = system: SK-MEL-2 melanoma

Row | Compound | TGI (MALME-3M melanoma) [µM] | TGI (EKVX NSCLC) [µM] | TGI (HCT-15 colon) [µM] | TGI (A549 NSCLC) [µM] | TGI (MDA-MB-231 breast) [µM] | TGI (SK-MEL-28 melanoma) [µM] | TGI (CAKI-1 renal) [µM] | TGI (MDA-MB-435) [µM] | TGI (UACC-62 melanoma) [µM] | TGI (NCI-H23 lung) [µM] | TGI (SK-MEL-2 melanoma) [µM]
1 | O=S(=O)(/N=C(\NO)Nc1ccc(Cl)cc1)c1ccc(-c2ccccn2)s1 | 96.8 | 98.8 | > 100 | > 100 | > 100 | > 100 | 66 | > 100 | > 100 | > 100 | > 100
2 | CN(C)CCNc1nc2c(no[n+]2[O-])c2ccccc12 | 37.1 | 73.9 | 57.4 | 33.5 | 34.3 | > 100 | 60.6 | 35.2 | 41.4 | > 100 | 40.4
3 | O=C(O)CC(O)(C(=O)O)C(O)C(=O)O (stereo unspecified) | > 1000 | > 1000 | > 1000 | > 1000 | > 1000 | > 1000 | > 1000 | > 1000 | > 1000 | > 1000 | > 1000
4 | C/C=C1\CC(C(=O)OCC)CCCCCCCCCCC1=O (stereo unspecified) | > 100 | > 100 | > 100 | > 100 | > 100 | > 100 | > 100 | 38 | > 100 | > 100 | > 100
5 | CCN(CC)CCC(=O)c1ccc(Oc2ccc(F)cc2)cc1 | 34.9 | 39.4 | 36.7 | > 100 | 31.2 | 30.2 | 30.9 | 32.3 | 31.9 | 45.9 | > 100
6 | O=C1c2cc([N+](=O)[O-])sc2C(=O)c2ccsc21 | 0.327 | 3.01 | 0.815 | 3.51 | 1.15 | 0.555 | 2.55 | 0.334 | 0.433 | 1.15 | 3.11
7 | COc1ccc2c(c1)-c1[nH]c3ccccc3c1CC2 | 25.6 | 21.9 | 29.6 | 30.4 | 33.8 | 32.1 | 29.4 | 31.7 | 29.4 | 26.9 | 29.4
8 | CC(=O)O[C@H]1CC[C@H]2[C@@H]3CCC(C(C)=O)[C@H](C(=O)O)[C@H]3CC[C@]12C (stereo partly specified) | > 100 | > 100 | > 100 | > 100 | > 100 | > 100 | > 100 | > 100 | > 100 | > 100 | > 100
9 | COc1cc2c(cc1OCCCCCOc1cc3c(cc1OC)C(=O)N1CCC[C@H]1CN3)N=C[C@@H]1CCCN1C2=O | 21.6 | > 100 | 43.8 | 27 | 9.48 | 28.2 | 44.1 | 20.1 | 6.72 | 20.5 | 11.5
10 | NC(N)=NCC(N)C(=O)O (stereo unspecified) | > 100 | > 100 | > 100 | > 100 | > 100 | > 100 | > 100 | > 100 | > 100 | > 100 | > 100
11 | CN(C)CCn1nc(N)c2nc3cc(C(F)(F)F)ccc3nc21 | > 100 | > 100 | > 100 | > 100 | > 100 | > 100 | > 100 | > 100 | > 100 | > 100 | > 100
12 | Cc1ccc2c(=O)c(-c3n[nH]c(=S)s3)c[nH]c2n1 | > 100 | > 100 | > 100 | > 100 | > 100 | > 100 | > 100 | > 100 | > 100 | > 100 | > 100
13 | CCOP(=O)(OCC)C(C)(C)OC(=O)NC#N | > 100 | > 100 | > 100 | > 100 | > 100 | > 100 | > 100 | > 100 | > 100 | > 100 | > 100
14 | C=C1c2nc3ccccc3n2C=C(c2ccc(OC)cc2)N1c1ccc(OCCN2CCOCC2)cc1 | 27.6 | > 100 | > 100 | > 100 | > 100 | > 100 | > 100 | > 100 | > 100 | > 100 | > 52.2
15 | CCOP(=O)(OCC)C(Nc1ccc(F)cc1)c1ccccc1 (stereo unspecified) | > 100 | > 100 | > 100 | > 100 | > 100 | > 100 | > 100 | > 100 | > 100 | > 100 | > 100
16 | C[N+](C)(N)c1nc(N)c(C#N)c(C#N)c1C#N | > 10 | > 10 | > 10 | > 10 | > 10 | > 10 | > 10 | > 10 | > 10 | > 10 | > 10

From PubChem BioAssay (NCI)
